{"source": "paper PMC8619914", "about": "“Development of Novel Peptides for the Antimicrobial Combination Therapy against Carbapenem-Resistant Acinetobacter baumannii Infection” (Pharmaceutics, 2021)", "key": {"HEK-293 cells": {"test_system": "HEK-293 cells", "assay": "Cytotoxicity, WST-8 Cell Proliferation Assay", "assay_type": "cell-based, human", "settings": "at its MIC, 24 h and 48 h", "description": "(§1) Human embryonic kidney (HEK)-293 cells, purchased from Korean cell line bank (Seoul, Korea) were cultured in Dulbecco’s modified Eagle’s medium (DMEM) (Welgene, Gyeong-san, Korea) with 10% fetal bovine serum, 1% penicillin-streptomycin at 37 °C in a humidified 5% CO2 incubator as described previously. The cytotoxicity of the six PapMA peptides and melittin was determined using WST-8 Cell Proliferation Assay Kit (Biomax Co, Ltd., Seoul, Korea), according to the manufacturer’s instructions. […] The absorbance was measured at 450 nm using a SpectraMAX microplate reader (Molecular Devices).\nFigure 4 Cytotoxicity of PapMA analogs. (A) Cytotoxicity of PapMA and its analogs against HEK-293 cell. […] (B) Hemolysis activity of PapMA analogs against sRBC. The peptide was serially diluted and incubated with sRBC for 1 h with melittin as a control. Statistical analysis was performed using two-way ANOVA with Dunnett’s comparison test. The values are expressed as the mean ± SEM of three independent experiments and are statistically significant at ** p < 0.01; and *** p < 0.001. ns, not significant."}, "A. baumannii": {"test_system": "A. baumannii", "settings": "50% human serum in MH medium, 16 h, 37 °C; measure of serum stability", "description": "(§2) Antibacterial activity of PapMA-3 in combination with imipenem was measured against CRAB C1 in the presence of 50% human serum. The treated cells were incubated for 16 h at 37 °C, and the absorbance at 600 nm was measured using a SpectraMAX microplate reader (Molecular Devices)."}, "CRAB C1 [1]": {"test_system": "CRAB C1", "description": "as §2"}, "HaCaT cells": {"test_system": "HaCaT cells", "assay": "Cytotoxicity, WST-8 Cell Proliferation Assay", "assay_type": "cell-based, human", "settings": "at its MIC, 24 h and 48 h", "description": "as §1\nFigure 10 Cytotoxicity of PapMA-3 (A) Cytotoxicity of PapMA-3 against HEK-293 cells at 24 h and 48 h. (B) Cytotoxicity of PapMA-3 against HaCaT cell at 24 h and 48 h. Statistical analysis was performed using two-way ANOVA with Dunnett’s comparison test. The values are expressed as the mean ± SEM of three independent experiments and are statistically significant at * p < 0.05; *** p < 0.001; ns, not significant."}, "CRAB C4": {"test_system": "CRAB C4", "assay": "microbe, parasite or virus in culture", "settings": "MH media, 2 × 10^5 CFU·mL^−1, 37 °C, 16 h, absorbance 600 nm", "text": "(§3) The Gram-negative bacterial strain Escherichia coli (KCTC 1682) and Gram-positive bacterial strain Staphylococcus aureus (KCTC 1621) were purchased from the Korean Collection for Type Cultures (Jeongeup, Korea). Acinetobacter baumannii (KCCM 40203) were purchased from Korea Culture Center of Microorganisms (Seoul, Korea). Additionally, five carbapenem-resistant Acinetobacter baumanii C1–C5 (CRAB C1–C5), which have the OXA-23 gene with carbapenem-resistance were collected from the patients with CRAB bacteremia, who presented symptoms and signs of infection at Korea University Anam Hospital (Seoul, Korea) (IRB registration no. 2020AN0157). The minimum inhibitory concentrations (MIC) of the AMP and antibiotics against the various bacterial strains were assessed using the serial dilution method on Muller–Hinton (MH) media, as described previously. […] Absorbance at 600 nm was measured using a SpectraMAX microplate reader (Molecular Devices, San Jose, CA, USA).\n(§4) Measurement of the minimum inhibitory concentrations (MIC) was conducted to determine the effect of the hydrophobicity of each antimicrobial peptide on its antimicrobial activity. MIC was defined as the minimum concentration that killed more than 99% of bacteria; it was measured against two standard Gram-negative bacteria (E. coli and A. baumanii), five clinically isolated CRAB (C1–C5), and one Gram-positive bacteria (S. aureus)."}, "CRAB C2": {"test_system": "CRAB C2", "assay": "microbe, parasite or virus in culture", "settings": "MH media, 2 × 10^5 CFU·mL^−1, 37 °C, 16 h, absorbance 600 nm", "text": "as §3, §4"}, "CRAB C1 [2]": {"test_system": "CRAB C1", "assay": "microbe, parasite or virus in culture", "settings": "16 h", "text": "as §3, §4"}, "CRAB C5": {"test_system": "CRAB C5", "assay": "microbe, parasite or virus in culture", "settings": "MH media, 2 × 10^5 CFU·mL^−1, 37 °C, 16 h, absorbance 600 nm", "text": "as §3, §4"}, "CRAB C3": {"test_system": "CRAB C3", "assay": "microbe, parasite or virus in culture", "settings": "MH media, 2 × 10^5 CFU·mL^−1, 37 °C, 16 h, absorbance 600 nm", "text": "as §3, §4"}, "[3]": {"test_system": "Acinetobacter baumannii (KCCM 40203)", "assay": "microbe, parasite or virus in culture", "settings": "16 h", "text": "as §3, §4"}, "[4]": {"test_system": "Gram-negative bacterial strains", "assay": "organism not typed", "text": "as §3\nGeometric means (GM) were calculated to compare the relative antimicrobial activities of the analogs against Gram-negative bacteria. […] Next, the antibacterial mechanisms of peptides were investigated."}, "intact CRAB C1": {"test_system": "intact CRAB C1", "assay": "Membrane depolarization, diSC3-5, intact cells", "assay_type": "cell-based, carbapenem-resistant Acinetobacter baumannii", "settings": "peptide 4 μg·mL^−1, 100% = 1% triton X-100", "description": "The membrane depolarization activity of each AMPs at varying concentrations (1–16 μg·mL^−^1) against CRAB C1 intact cells were measured using 3,3′-dipropylthiadicarbocyanine iodide (diSC3-5). CRAB C1 was washed two times in washing buffer (5 mM HEPES, 20 mM glucose, pH 7.4), the experiment buffer was changed (5 mM HEPES, 20 mM glucose, 0.1 M KCl, pH 7.4), and diSC3-5 dye was added. As a control, 100% depolarization was obtained by treating CRAB C1 with 1% triton X-100 [33]. Spheroplast cells were prepared by the osmotic shock, as previously described. […] The corresponding fluorescent were measured using RF-6000PC fluorescent spectrophotometer (Shimadzu Scientific Instruments, Kyoto, Japan).\nFigure 3 CRAB C1 membrane destruction caused by PapMA analogs. The concentration dependent depolarization of (A) intact CRAB C1 and its (B) spheroplast induced by PapMA and its analogs, determined using the membrane potential-sensitive fluorescent dye diSC3-5. Dye release was monitored by measuring fluorescence, at an excitation wavelength of 654 nm and an emission wavelength of 670 nm."}, "[5]": {"settings": "MH media, 2 × 10^5 CFU·mL^−1, 37 °C, absorbance 600 nm"}}, "data": [{"smiles": "CC[C@H](C)[C@H](NC(=O)CN)C(=O)NCC(=O)N[C@@H](C)C(=O)N[C@H](C(=O)N[C@@H](CC(C)C)C(=O)N[C@@H](CCCCN)C(=O)N[C@H](C(=O)N[C@@H](CC(C)C)C(=O)N[C@H](C(=O)N[C@H](C(=O)NCC(=O)N[C@@H](CC(C)C)C(=O)N1CCC[C@H]1C(=O)N[C@@H](C)C(=O)N[C@@H](CC(C)C)C(=O)N[C@H](C(=O)N[C@@H](CO)C(=O)N[C@@H](Cc1c[nH]c2ccccc12)C(=O)N[C@H](C(=O)N[C@@H](CCCCN)C(=O)N[C@@H](CCCNC(=N)N)C(=O)N[C@@H](CCCCN)C(=O)N[C@@H](CCCNC(=N)N)C(=O)N[C@@H](CCC(N)=O)C(=O)N[C@@H](CCC(N)=O)C(N)=O)[C@@H](C)CC)[C@@H](C)CC)[C@@H](C)O)[C@@H](C)O)C(C)C)C(C)C", "note": "[melittin]", "values": [{"measurement": "toxicity, HEK-293", "setting": "HEK-293 cells", "result": "severe toxicity"}, {"measurement": "Minimum Inhibitory Concentration, A. baumannii, + Serum (50%)", "setting": "A. baumannii", "result": 128, "unit": "µg/mL"}, {"measurement": "change of antibacterial activity in the presence of 50% human serum", "setting": "CRAB C1 [1]; 50% human serum in MH media versus MH media, E. coli, A. baumannii, CRAB C1", "result": "lost antibacterial activity considerably"}, {"measurement": "Minimum Inhibitory Concentration, CRAB C1, + Serum (50%)", "setting": "CRAB C1 [1]; 50% human serum in MH medium, 16 h, 37 °C, measure of serum stability", "result": 256, "unit": "µg/mL"}, {"measurement": "toxicity, HaCaT", "setting": "HaCaT cells", "result": "severe toxicity"}, {"measurement": "Minimum Inhibitory Concentration, CRAB C4", "setting": "CRAB C4", "result": 8, "unit": "µg/mL"}, {"measurement": "Minimum Inhibitory Concentration, CRAB C2", "setting": "CRAB C2", "result": 16, "unit": "µg/mL"}, {"measurement": "Minimum Inhibitory Concentration, CRAB C1, MH Media", "setting": "CRAB C1 [2]; MH media without serum, 37 °C", "result": 16, "unit": "µg/mL"}, {"measurement": "Minimum Inhibitory Concentration, CRAB C1", "setting": "CRAB C1 [2]; [5]", "result": 16, "unit": "µg/mL"}, {"measurement": "Minimum Inhibitory Concentration, CRAB C5", "setting": "CRAB C5", "result": 16, "unit": "µg/mL"}, {"measurement": "Minimum Inhibitory Concentration, CRAB C3", "setting": "CRAB C3", "result": 16, "unit": "µg/mL"}, {"measurement": "Minimum Inhibitory Concentration, A. baumannii, MH Media", "setting": "[3]; MH media without serum, 37 °C", "result": 16, "unit": "µg/mL"}, {"measurement": "Minimum Inhibitory Concentration, A. baumanii", "setting": "[3]; [5]", "result": 16, "unit": "µg/mL"}, {"measurement": "GM (mean MIC of Gram-negative bacterial strains)", "setting": "[4]", "result": 14, "unit": "µg/mL"}, {"measurement": "depolarization of intact CRAB C1", "setting": "intact CRAB C1", "result": 86.4, "unit": "%"}]}]}
